Reference: PMC8317666, “Combining flavin photocatalysis with parallel synthesis: a general platform to optimize peptides with non-proteinogenic amino acids” (Chemical Science, 2021)

Target: Thrombin (Homo sapiens, UniProt P00734)
Assay: Thrombin inhibition assay (Sigma Thrombin Inhibitor Screening Kit MAK243)
[1] = 80 μM peptide (screening grade, mixture of diastereomers), 15 min preincubation with thrombin at room temperature, AMC-based peptide substrate, 37 °C, 30 min incubation, fluorescence Ex/Em 350/450 nm, 384-well, replicate 1 of 2
[2] = 80 μM peptide (screening grade, mixture of diastereomers), 15 min preincubation, AMC substrate, 37 °C, 30 min, fluorescence, average of two independent experiments

Row | Substance | Percent thrombin inhibition, 1st run [1] [%] | Percent thrombin inhibition, Average [2] [%] | Percent thrombin inhibition, Average (80 μM peptide (screening grade, mixture of diastereomers), 15 min preincubation, AMC substrate, 37 °C, 30 min, fluorescence, average of two independent experiments, listed as 3C′) [%] | Percent thrombin inhibition, 2nd run (80 μM peptide (screening grade, mixture of diastereomers), 15 min preincubation, AMC substrate, 37 °C, 30 min, fluorescence, replicate 2 of 2) [%] | Percent thrombin inhibition, Average (80 μM, parent peptide and HPLC-separated diastereomers of 3C' (>95% purity), 30 min incubation, average of three independent experiments) [%] | Percent thrombin inhibition, 1st run (80 μM, parent peptide and HPLC-separated diastereomers of 3C' (>95% purity), 30 min incubation, replicate 1 of 3) [%] | Percent thrombin inhibition, 2nd run (80 μM, parent peptide and HPLC-separated diastereomers of 3C' (>95% purity), 30 min incubation, replicate 2 of 3) [%] | Percent thrombin inhibition, 3rd run (80 μM, parent peptide and HPLC-separated diastereomers of 3C' (>95% purity), 30 min incubation, replicate 3 of 3) [%]
1 | Ac-Gly-Pro-[N(Me)-2-Ind]-Phe-NH2 [3C'] | 96.7 | 96.9 | 97 | – | – | – | – | –
2 | Ac-G-P-[5-Qin]-F-NH2 [4B'] | -2.1 | -2.5 | – | -2.9 | – | – | – | –
3 | Ac-Gly-Pro-Phe-Phe-NH2 [Ac-G-P-F-F-NH2] | – | – | – | – | 7.1 | 9.4 | 5.5 | 6.5
